Literature values, collected in PMC9516332 (Frontiers in Oncology, 2022).
Read-outs that look alike come from different tables or passages of the source.

Key:
Conditions in all cases: cited from earlier work
[1] = target: panel of 255 wild-type kinases (Homo sapiens, UniProt O96013)
[2] = target: T1, panel of 255 wild-type kinases (Homo sapiens, UniProt P21709)
T1 sequence (P21709 26-976): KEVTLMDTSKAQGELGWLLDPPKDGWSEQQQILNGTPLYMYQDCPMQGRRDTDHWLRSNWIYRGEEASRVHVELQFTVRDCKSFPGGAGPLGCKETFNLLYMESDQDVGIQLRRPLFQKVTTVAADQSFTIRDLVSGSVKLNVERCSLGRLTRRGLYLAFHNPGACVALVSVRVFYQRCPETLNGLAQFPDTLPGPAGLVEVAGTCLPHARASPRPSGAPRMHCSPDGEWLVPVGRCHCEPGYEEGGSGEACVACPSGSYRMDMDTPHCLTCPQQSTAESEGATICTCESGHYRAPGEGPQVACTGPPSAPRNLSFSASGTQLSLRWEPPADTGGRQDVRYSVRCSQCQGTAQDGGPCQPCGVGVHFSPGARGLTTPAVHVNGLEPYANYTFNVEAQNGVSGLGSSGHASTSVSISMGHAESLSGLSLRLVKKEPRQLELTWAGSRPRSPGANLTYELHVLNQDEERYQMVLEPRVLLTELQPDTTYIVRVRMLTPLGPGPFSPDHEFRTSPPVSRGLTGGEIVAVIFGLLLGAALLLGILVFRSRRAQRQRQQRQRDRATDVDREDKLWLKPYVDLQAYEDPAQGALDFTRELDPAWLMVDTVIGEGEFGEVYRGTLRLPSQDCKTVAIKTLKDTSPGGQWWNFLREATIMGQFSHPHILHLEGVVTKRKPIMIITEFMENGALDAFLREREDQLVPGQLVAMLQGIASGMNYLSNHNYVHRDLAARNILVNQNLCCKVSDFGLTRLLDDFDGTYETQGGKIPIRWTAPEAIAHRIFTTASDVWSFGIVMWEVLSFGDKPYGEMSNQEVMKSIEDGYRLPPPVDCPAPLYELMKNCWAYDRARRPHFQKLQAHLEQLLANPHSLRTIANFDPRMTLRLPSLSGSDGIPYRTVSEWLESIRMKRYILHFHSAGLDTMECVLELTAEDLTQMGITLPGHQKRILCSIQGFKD

[3] = target: T2, panel of 255 wild-type kinases (Homo sapiens, UniProt Q9UF33)
T2 sequence (Q9UF33 23-1036): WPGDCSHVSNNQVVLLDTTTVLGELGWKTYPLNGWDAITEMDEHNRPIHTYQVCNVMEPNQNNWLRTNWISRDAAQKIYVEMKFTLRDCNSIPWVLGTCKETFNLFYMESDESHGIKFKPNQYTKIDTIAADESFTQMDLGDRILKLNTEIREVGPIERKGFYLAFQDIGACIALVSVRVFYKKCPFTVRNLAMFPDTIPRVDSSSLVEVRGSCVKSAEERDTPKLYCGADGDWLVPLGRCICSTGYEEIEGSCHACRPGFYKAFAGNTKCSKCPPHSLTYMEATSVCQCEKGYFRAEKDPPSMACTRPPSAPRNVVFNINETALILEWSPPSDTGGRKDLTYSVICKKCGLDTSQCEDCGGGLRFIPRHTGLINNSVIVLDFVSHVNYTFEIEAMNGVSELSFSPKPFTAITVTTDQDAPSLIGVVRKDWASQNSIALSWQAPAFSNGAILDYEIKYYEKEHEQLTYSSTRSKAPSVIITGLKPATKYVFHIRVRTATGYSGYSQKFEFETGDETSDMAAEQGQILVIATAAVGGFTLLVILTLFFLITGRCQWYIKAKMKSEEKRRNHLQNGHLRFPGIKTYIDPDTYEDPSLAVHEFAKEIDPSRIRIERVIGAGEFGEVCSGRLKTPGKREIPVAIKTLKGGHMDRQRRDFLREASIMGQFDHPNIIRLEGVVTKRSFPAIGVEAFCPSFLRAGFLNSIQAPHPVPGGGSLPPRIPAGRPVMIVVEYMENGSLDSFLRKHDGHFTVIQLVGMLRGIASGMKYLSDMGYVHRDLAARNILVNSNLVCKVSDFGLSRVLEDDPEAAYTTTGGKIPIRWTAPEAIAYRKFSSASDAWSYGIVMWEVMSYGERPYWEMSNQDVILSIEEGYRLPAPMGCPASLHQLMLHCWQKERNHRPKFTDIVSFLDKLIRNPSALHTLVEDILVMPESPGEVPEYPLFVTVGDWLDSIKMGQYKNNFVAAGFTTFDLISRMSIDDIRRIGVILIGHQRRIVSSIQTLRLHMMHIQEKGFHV

[4] = target: panel of 255 wild-type kinases (Homo sapiens, UniProt Q9P286)
[5] = target: panel of 255 wild-type kinases (Homo sapiens, UniProt P22455)
[6] = target: panel of 255 wild-type kinases (Homo sapiens, UniProt P24723)
[7] = target: panel of 255 wild-type kinases (Homo sapiens, UniProt Q16644)
[8] = PAK4, 1 µmol/L single concentration, ref DOI: 10.1158/1535-7163.MCT-18-0877
[9] = kinase EPHA1, 1 µmol/L single concentration, ref DOI: 10.1158/1535-7163.MCT-18-0877
[10] = kinase EPHA6, 1 µmol/L single concentration, ref DOI: 10.1158/1535-7163.MCT-18-0877
[11] = PAK5, 1 µmol/L single concentration, ref DOI: 10.1158/1535-7163.MCT-18-0877
[12] = kinase FGFR4, 1 µmol/L single concentration, ref DOI: 10.1158/1535-7163.MCT-18-0877
[13] = kinase PKCη, 1 µmol/L single concentration, ref DOI: 10.1158/1535-7163.MCT-18-0877
[14] = MAPKAPK3, 1 µmol/L single concentration, ref DOI: 10.1158/1535-7163.MCT-18-0877
[15] = PAK4, 1 µmol/L single concentration, ref DOI: 10.1371/journal.pone.0092146
[16] = kinase EPHA1, 1 µmol/L single concentration, ref DOI: 10.1371/journal.pone.0092146
[17] = kinase EPHA6, 1 µmol/L single concentration, ref DOI: 10.1371/journal.pone.0092146
[18] = PAK5, 1 µmol/L single concentration, ref DOI: 10.1371/journal.pone.0092146
[19] = kinase FGFR4, 1 µmol/L single concentration, ref DOI: 10.1371/journal.pone.0092146
[20] = kinase PKCη, 1 µmol/L single concentration, ref DOI: 10.1371/journal.pone.0092146
[21] = MAPKAPK3, 1 µmol/L single concentration, ref DOI: 10.1371/journal.pone.0092146

Row | SMILES | %-inhibition, PAK4 [1, 8] [%] | %-inhibition at 1 µmol/L, EPHA1 [2, 9] [%] | %-inhibition at 1 µmol/L, EPHA6 [3, 10] [%] | %-inhibition, PAK5 [4, 11] [%] | %-inhibition at 1 µmol/L, FGFR4 [5, 12] [%] | %-inhibition at 1 µmol/L, PKCη [6, 13] [%] | %-inhibition, MAPKAPK3 [7, 14] [%] | %-inhibition, PAK4 [1, 15] [%] | %-inhibition at 1 µmol/L, EPHA1 [2, 16] [%] | %-inhibition at 1 µmol/L, EPHA6 [3, 17] [%] | %-inhibition, PAK5 [4, 18] [%] | %-inhibition at 1 µmol/L, FGFR4 [5, 19] [%] | %-inhibition at 1 µmol/L, PKCη [6, 20] [%] | %-inhibition, MAPKAPK3 [7, 21] [%] | further results
1 | CC#CC(=O)N1CCC[C@H]1c1nc(-c2ccc(C(=O)Nc3ccccn3)cc2)c2c(N)nccn12 [acalabrutinib] | -1.65 | -0.591 | -2.37 | -0.37 | -9 | -3.18 | -11 |  |  |  |  |  |  |  | 
2 | CCc1cc2c(cc1N1CCC(N3CCOCC3)CC1)C(C)(C)c1[nH]c3cc(C#N)ccc3c1C2=O [alectinib] | 6.55 | 5.62 | 0.529 | 8 | 4 | 10 | -0.429 |  |  |  |  |  |  |  | 
3 | COc1cc(N2CCC(N3CCN(C)CC3)CC2)ccc1Nc1ncc(Cl)c(Nc2ccccc2P(C)(C)=O)n1 [brigatinib] |  |  |  |  |  |  |  |  |  |  |  |  |  |  | %-inhibition, PAK4 [1]: 45%; %-inhibition at 1 µmol/L, EPHA1 [2]: 61%; %-inhibition at 1 µmol/L, EPHA6 [3]: 20%; %-inhibition, PAK5 [4]: 82%; %-inhibition at 1 µmol/L, FGFR4 [5]: 82%; %-inhibition at 1 µmol/L, PKCη [6]: 17%; %-inhibition, MAPKAPK3 [7]: -0.903%
4 | Cc1cc(Nc2ncc(Cl)c(Nc3ccccc3S(=O)(=O)C(C)C)n2)c(OC(C)C)cc1C1CCNCC1 [ceritinib] | 13 | 45 | 29 | 15 | 69 | 5.3 | -10 |  |  |  |  |  |  |  | 
5 | O=C(c1ccc(F)c(F)c1Nc1ccc(I)cc1F)N1CC(O)([C@@H]2CCCCN2)C1 [cobimetinib] | 2 | 0.613 | 1.6 | 0.678 | -0.0569 | -2 | 1.42 |  |  |  |  |  |  |  | 
6 | C[C@@H](Oc1cc(-c2cnn(C3CCNCC3)c2)cnc1N)c1c(Cl)ccc(F)c1Cl [crizotinib] |  |  |  |  |  |  |  | -5.56 | 97 | 100 | 7 | 0 | -8 | -13 | 
7 | CC(C)(C)c1nc(-c2cccc(NS(=O)(=O)c3c(F)cccc3F)c2F)c(-c2ccnc(N)n2)s1 [dabrafenib] |  |  |  |  |  |  |  | 11 | 44 | 88 | 21 | 19 | 9 | -11 | 
8 | C=CC(=O)N1CCC[C@@H](n2nc(-c3ccc(Oc4ccccc4)cc3)c3c(N)ncnc32)C1 [ibrutinib] | 11 | 50 | 93 | 12 | 37 | 3.27 | -6.5 |  |  |  |  |  |  |  | 
9 | CO[C@@H]1[C@H](N(C)C(=O)c2ccccc2)C[C@H]2O[C@]1(C)n1c3ccccc3c3c4c(c5c6ccccc6n2c5c31)C(=O)NC4 [midostaurin] | 30 | 9 | 19 | 37 | 38 |  | -7 |  |  |  |  |  |  |  | %-inhibition at 1 µmol/L, PKCη [6]: 84%
10 | C=CC(=O)Nc1cc(Nc2nccc(-c3cn(C)c4ccccc34)n2)c(OC)cc1N(C)CCN(C)C [osimertinib] | 12 | 13 | 2.33 | 6 | 11 | 0.117 | -9 |  |  |  |  |  |  |  | 
11 | CC(=O)Nc1cccc(-n2c(=O)n(C3CC3)c(=O)c3c(Nc4ccc(I)cc4F)n(C)c(=O)c(C)c32)c1 [trametinib] |  |  |  |  |  |  |  | -0.675 | -1.61 | -2.51 | -2.62 | -3 | -8 | -9 | 
12 | CCCS(=O)(=O)Nc1ccc(F)c(C(=O)c2c[nH]c3ncc(-c4ccc(Cl)cc4)cc23)c1F [vemurafenib] |  |  |  |  |  |  |  | -7 | -9 | 37 | -1.23 | 5 | -22 | 12 | 
